System: HCV 1b RLuc cells (dicistronic genotype 1b Con1 replicon)
Assay: Renilla luciferase (RLuc)-based HCV replicon reporter assay
Type: cell-based, HCV genotype 1b
Details: Hepatitis C virus, 72 h, HCV 1b RLuc replicon, 72 hours; read-out: Activity (antiviral potency [EC50])
In short: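 HCV 1b RLuc cells carrying a dicistronic genotype 1b Con1 replicon were treated with serially diluted compounds from 10 mM DMSO stocks. After 72 h, cells were lysed and Renilla luciferase activity measured. EC50 was obtained by non-linear regression.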

Row | SMILES | EC50
1 | COC(=O)N[C@H](C(=O)N1CCC[C@H]1c1ncc(-c2ccc(-c3ccc4cc(-c5cnc([C@@H]6[C@H]7CC[C@H](C7)N6C(=O)[C@@H](NC(=O)OC)C(C)C)[nH]5)ccc4c3)cc2)[nH]1)C(C)C | 0.011 nM
2 | COC(=O)N[C@H](C(=O)N1CCC[C@H]1c1ncc(-c2ccc(C#Cc3ccc(-c4cnc([C@@H]5CNCCN5C(=O)[C@@H](NC(=O)OC)C(C)C)[nH]4)cc3)cc2)[nH]1)C(C)C | 0.201 nM
3 | COC(=O)N[C@H](C(=O)N1CCC[C@H]1c1ncc(-c2ccc3c(c2)Nc2ccc(-c4cnc([C@@H]5CCCN5C(=O)[C@@H](NC(=O)OC)C(C)C)[nH]4)cc2S3)[nH]1)C(C)C | 1.72 nM
4 | COC(=O)N[C@H](C(=O)N1CCC[C@H]1c1ncc(-c2ccc(-c3ccc(-c4cnc(CN5CCC[C@@H](N)C5=O)[nH]4)cc3)cc2)[nH]1)C(C)C | 7.55 nM
5 | COC(=O)N[C@@H](C)C(=O)N1[C@@H]2CC[C@@H](C2)[C@H]1c1ncc(-c2ccc3cc(-c4ccc(-c5cnc([C@@H]6CCCN6C(=O)[C@@H](NC(=O)OC)C(C)C)[nH]5)cc4)ccc3c2)[nH]1 | 0.016 nM
6 | COC(=O)N[C@H](C(=O)N1CCC[C@H]1c1ncc(-c2ccc3cc4cc(-c5cnc([C@@H]6CCCN6C(=O)[C@@H](NC(=O)OC)C(C)C)[nH]5)ccc4cc3c2)[nH]1)C(C)C | 0.007 nM
7 | COC(=O)N[C@H](C(=O)N1Cc2ccccc2C1c1ncc(-c2ccc(-c3ccc(-c4cnc([C@@H]5CCCN5C(=O)[C@@H](NC(=O)OC)C(C)C)[nH]4)cc3)cc2)[nH]1)C(C)C (some centres unmarked) | 0.0414 nM
8 | COC(=O)N[C@H](C(=O)N1CCC[C@H]1c1ncc(-c2ccc(-c3ccc(-c4cnc([C@@H]5CN(C(=O)c6ccccc6)CN5C(=O)[C@@H](NC(=O)OC)C(C)C)[nH]4)cc3)cc2)[nH]1)C(C)C | 0.0136 nM
9 | COC(=O)N[C@H](C(=O)N1CCC[C@H]1C(=O)Nc1cccc(-c2ccc(-c3ccc(-c4cnc([C@@H]5CCCN5C(=O)[C@@H](NC(=O)OC)C(C)C)[nH]4)cc3)cc2)c1)C(C)C | 0.0111 nM
10 | COC(=O)N[C@H](C(=O)N1CCC[C@H]1c1ncc(-c2ccc3c(c2)oc2cc(-c4cnc([C@@H]5[C@H]6CC[C@H](C6)N5C(=O)[C@@H](NC(=O)OC)C(C)C)[nH]4)ccc23)[nH]1)C(C)C | 0.0082 nM
11 | COC(=O)N[C@H](C(=O)N1CCC[C@H]1c1ncc(-c2ccc(-c3ccc(-c4cnc([C@@H]5C[C@H](COC(F)F)CN5C(=O)[C@@H](NC(=O)OC)C(C)C)[nH]4)cc3)cc2)[nH]1)C(C)C | 0.015 nM
12 | COC(=O)N[C@@H](CCOC(F)F)C(=O)N1CCC[C@H]1c1ncc(-c2ccc(-c3ccc4cc(-c5cnc([C@@H]6CC7(CC7)CN6C(=O)[C@@H](NC(=O)OC)C(C)C)[nH]5)ccc4c3)cc2)[nH]1 | 0.0052 nM
13 | COC(=O)N[C@H](C(=O)N1CC2(CC2)C[C@H]1c1ncc(-c2ccc(-c3ccc4cc(-c5cnc([C@@H]6[C@H]7CC[C@H](C7)N6C(=O)[C@@H](NC(=O)OC)C(C)(C)OC)[nH]5)ccc4c3)cc2)[nH]1)C(C)C | 0.0155 nM
14 | COC(=O)N[C@H](C(=O)N1CCC[C@H]1c1ncc(-c2ccc(-c3ccc4cc(-c5cnc([C@@H]6CCCN6C(=O)[C@@H](NC(=O)OC)C(C)C)[nH]5)ccc4c3)cc2)[nH]1)c1ccccc1 | 0.0272 nM
15 | COC(=O)N[C@H](C(=O)N1CCC[C@H]1c1ncc(-c2ccc(C#Cc3ccc(-c4cnc([C@@H]5CN(C(=O)OC)CCN5C(=O)[C@@H](NC(=O)OC)C(C)C)[nH]4)cc3)cc2)[nH]1)C(C)C | 0.256 nM
16 | COC(=O)N[C@H](C(=O)N1[C@@H]2CC[C@@H](C2)[C@H]1c1ncc(-c2ccc(-c3ccc(-c4cnc([C@@H]5[C@H]6CC[C@H](C6)N5C(=O)[C@@H](NC(=O)OC)C(C)C)[nH]4)cc3)cc2)[nH]1)C(C)C | 0.01 nM

Row | SMILES | EC50
17 | COC(=O)N[C@H](C(=O)N1[C@@H]2CC[C@@H](C2)[C@H]1c1nc2ccc(-c3ccc4c(c3)C(=O)c3cc(-c5cnc([C@@H]6CC7(CC7)CN6C(=O)[C@H](NC(=O)OC)C(C)C)[nH]5)ccc3-4)cc2[nH]1)C(C)C | 0.005 nM
18 | COC(=O)N[C@H](C(=O)N1CCC[C@H]1c1ncc(-c2ccc3cc(-c4ccc(-c5cnc([C@@H]6C[C@H](c7ccccc7)CN6C(=O)[C@@H](NC(=O)OC)C(C)C)[nH]5)cc4)ccc3c2)[nH]1)C(C)C | 0.0189 nM
19 | CC[C@H](C)[C@H](NC(=O)OC)C(=O)N1C[C@@H](C#N)C[C@H]1c1ncc(-c2ccc3cc(-c4ccc(-c5cnc([C@@H]6CC7(CC7)CN6C(=O)[C@@H](NC(=O)OC)C(C)C)[nH]5)cc4)ccc3c2)[nH]1 | 0.01 nM
20 | COC(=O)NC(C(=O)N1CC2(CC2)C[C@H]1c1ncc(-c2ccc3cc(-c4ccc(-c5cnc([C@@H]6[C@H]7CC[C@H](C7)N6C(=O)[C@@H](NC(=O)OC)C(C)C)[nH]5)cc4)ccc3c2)[nH]1)c1ccccc1 (some centres unmarked) | 0.0145 nM
21 | COC(=O)NC(C(=O)N1CCC[C@H]1c1ncc(-c2cc3sc(C#Cc4cnc([C@@H]5CCCN5C(=O)[C@@H](NC(=O)OC)C(C)C)[nH]4)cc3s2)[nH]1)C(C)C (some centres unmarked) | 0.0503 nM
22 | COC(=O)N[C@H](C(=O)N1CCC[C@H]1c1ncc(-c2ccc(-c3ccc4cc(-c5cnc([C@@H]6CCCN6C(=O)[C@@H](NC(=O)OC)C6CCOCC6)[nH]5)ccc4c3)cc2)[nH]1)C(C)C | 0.0193 nM
23 | COC(=O)N[C@H](C(=O)N1CCC[C@H]1c1ncc(-c2ccc(C#Cc3ccc(-c4cnc([C@@H]5CN(C(=O)OC(C)(C)C)CCN5C(=O)[C@@H](NC(=O)OC)C(C)C)[nH]4)cc3)cc2)[nH]1)C(C)C | 4.73 nM
24 | COC(=O)N[C@H](C(=O)N1CCC[C@H]1c1ncc(-c2ccc3cc(-c4ccc(-c5cnc([C@@H]6CCCN6C(=O)[C@@H](NC(=O)OC)C6CCOCC6)[nH]5)cc4)ccc3c2)[nH]1)C(C)C | 0.0131 nM
25 | COC(=O)N[C@H](C(=O)N1CCC[C@H]1c1ncc(-c2ccc3cc(-c4ccc(-c5cnc(-c6cccn6S(=O)(=O)c6ccccc6)[nH]5)cc4)ccc3c2)[nH]1)C(C)C | 24.1 nM
26 | COC(=O)N[C@@H](C)C(=O)N1CCC[C@H]1c1ncc(-c2ccc3c(c2)sc2cc(-c4ccc5nc([C@@H]6[C@H]7CC[C@H](C7)N6C(=O)[C@H](C)NC(=O)OC)[nH]c5c4)ccc23)[nH]1 | 0.075 nM
27 | COC(=O)NC(C(=O)N1CCC[C@H]1c1ncc(-c2ccc(C#Cc3ccc(-c4cnc([C@@H]5CCCN5C(=O)[C@@H](NC(=O)OC)C(C)C)[nH]4)cc3)cc2)[nH]1)C(F)(F)F (some centres unmarked) | > 44.4 nM
28 | COC(=O)N[C@@H](CC#N)C(=O)N1[C@@H]2CC[C@@H](C2)[C@H]1c1nc2ccc(-c3ccc4c(c3)C(F)(F)c3cc(-c5cnc([C@@H]6CC7(CC7)CN6C(=O)[C@@H](NC(=O)OC)C(C)C)[nH]5)ccc3-4)cc2[nH]1 | 0.004 nM
29 | COC(=O)N[C@@H](CCSC)C(=O)N1CCC[C@H]1c1nc(-c2ccc3c(c2)C(F)(F)c2cc(-c4cnc([C@@H]5CC6(CC6)CN5C(=O)[C@@H](NC(=O)OC)C(C)C)[nH]4)ccc2-3)c[nH]1 | 0.0204 nM
30 | COC(=O)N[C@H](C(=O)N1CCC[C@H]1c1ncc(-c2ccc(C#Cc3ccc(-c4cnc([C@@H]5CN(C(=O)OC)CN5C(=O)[C@@H](NC(=O)OC)C(C)C)[nH]4)cc3)cc2)[nH]1)C(C)C | 0.0187 nM
31 | COC(=O)N[C@H](C(=O)N1CCC[C@H]1c1ncc(-c2ccc(-c3ccc(-c4cnc([C@@H]5COCCN5C(=O)[C@@H](NC(=O)OC)C(C)C)[nH]4)cc3)cc2)[nH]1)C(C)C | 0.0214 nM
32 | COC(=O)N[C@H](C(=O)N1CCC[C@H]1c1ncc(-c2ccc(-c3cnc(-c4ccc(-c5cnc([C@@H]6CCCN6C(=O)[C@@H](NC(=O)OC)C(C)C)[nH]5)cc4)s3)cc2)[nH]1)C(C)C | 0.0385 nM
